Laboratory results as given in ChEMBL document CHEMBL5214932, “A closer look at N2,6-substituted 1,3,5-triazine-2,4-diamines: Advances in synthesis and biological activities” (Eur J Med Chem, 2022).
pIC50, pKi: −log10 of the molar value.

Legend:
[1] = Cytotoxicity against human IM-9 cells assessed as cell growth inhibition; assay type: toxicity, cell-based
Jurkat = experiment: Cytotoxicity against human Jurkat cells assessed as cell growth inhibition; assay type: functional, cell-based
Daudi = experiment: Cytotoxicity against human Daudi cells assessed as cell growth inhibition; assay type: functional, cell-based
HL-60 = experiment: Cytotoxicity against human HL-60 cells assessed as cell growth inhibition; assay type: functional, cell-based
MCF7 [2] = experiment: Cytotoxicity against human MCF7 cells assessed as cell growth inhibition; assay type: functional, cell-based
DU-145 = experiment: Cytotoxicity against human DU-145 cells assessed as cell growth inhibition; assay type: functional, cell-based
[3] = Cytotoxicity against mouse LL2 cells assessed as cell growth inhibition; assay type: functional, cell-based; settings: Lewis lung carcinoma
SK-OV-3 [4] = experiment: Cytotoxicity against human SK-OV-3 cells assessed as cell growth inhibition; assay type: functional, cell-based
[5] = Cytotoxicity against human MHOC-59 cell assessed as cell growth inhibition; assay type: functional, cell-based
AN3-CA = experiment: Cytotoxicity against human AN3-CA cells assessed as cell growth inhibition; assay type: functional, cell-based
HEC-1-A = experiment: Cytotoxicity against human HEC-1-A cells assessed as cell growth inhibition; assay type: functional, cell-based
K562 = experiment: cells; settings: Homo sapiens
Description: Cytotoxicity against human K562 cells assessed as cell growth inhibition

NADPH oxidase 1 = NADPH oxidase 1 (Homo sapiens, UniProt Q9Y5S8); experiment: Inhibition of human NOX1
NADPH oxidase 1, sequence (Q9Y5S8 whole entry): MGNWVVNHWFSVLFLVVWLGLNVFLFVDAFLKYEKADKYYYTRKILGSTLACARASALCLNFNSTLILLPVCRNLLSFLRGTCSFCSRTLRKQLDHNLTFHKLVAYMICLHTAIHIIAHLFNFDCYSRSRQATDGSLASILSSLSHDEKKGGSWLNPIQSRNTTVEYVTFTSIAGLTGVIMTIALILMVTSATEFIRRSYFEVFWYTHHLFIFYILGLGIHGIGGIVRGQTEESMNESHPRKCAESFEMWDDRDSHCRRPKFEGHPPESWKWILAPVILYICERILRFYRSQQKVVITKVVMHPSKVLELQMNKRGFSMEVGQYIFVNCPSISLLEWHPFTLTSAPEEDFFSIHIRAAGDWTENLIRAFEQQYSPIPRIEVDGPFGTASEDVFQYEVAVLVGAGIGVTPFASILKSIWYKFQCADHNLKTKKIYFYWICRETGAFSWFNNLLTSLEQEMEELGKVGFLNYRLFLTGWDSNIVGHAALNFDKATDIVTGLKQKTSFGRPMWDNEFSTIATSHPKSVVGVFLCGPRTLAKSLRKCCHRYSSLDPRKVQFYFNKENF

NADPH oxidase 2 = NADPH oxidase 2 (Homo sapiens, UniProt P04839); experiment: Inhibition of human NOX2
NADPH oxidase 2, sequence (P04839 whole entry): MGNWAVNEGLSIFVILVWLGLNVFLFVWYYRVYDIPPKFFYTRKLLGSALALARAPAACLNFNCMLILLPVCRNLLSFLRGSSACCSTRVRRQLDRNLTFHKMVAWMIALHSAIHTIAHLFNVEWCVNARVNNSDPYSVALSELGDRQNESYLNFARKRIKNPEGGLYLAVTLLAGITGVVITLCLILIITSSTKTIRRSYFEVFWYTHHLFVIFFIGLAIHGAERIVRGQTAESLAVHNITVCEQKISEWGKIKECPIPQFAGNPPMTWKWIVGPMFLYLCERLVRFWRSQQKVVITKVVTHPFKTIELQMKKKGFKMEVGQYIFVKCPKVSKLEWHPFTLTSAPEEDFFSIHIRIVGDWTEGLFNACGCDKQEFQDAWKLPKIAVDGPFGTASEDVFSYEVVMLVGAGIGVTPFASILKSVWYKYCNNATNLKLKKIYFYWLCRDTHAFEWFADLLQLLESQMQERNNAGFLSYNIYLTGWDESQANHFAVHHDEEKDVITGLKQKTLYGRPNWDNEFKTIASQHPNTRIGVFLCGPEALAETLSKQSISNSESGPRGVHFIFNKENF

NADPH oxidase 3 = NADPH oxidase 3 (Homo sapiens, UniProt Q9HBY0); experiment: Inhibition of human NOX3
NADPH oxidase 3, sequence (Q9HBY0 whole entry): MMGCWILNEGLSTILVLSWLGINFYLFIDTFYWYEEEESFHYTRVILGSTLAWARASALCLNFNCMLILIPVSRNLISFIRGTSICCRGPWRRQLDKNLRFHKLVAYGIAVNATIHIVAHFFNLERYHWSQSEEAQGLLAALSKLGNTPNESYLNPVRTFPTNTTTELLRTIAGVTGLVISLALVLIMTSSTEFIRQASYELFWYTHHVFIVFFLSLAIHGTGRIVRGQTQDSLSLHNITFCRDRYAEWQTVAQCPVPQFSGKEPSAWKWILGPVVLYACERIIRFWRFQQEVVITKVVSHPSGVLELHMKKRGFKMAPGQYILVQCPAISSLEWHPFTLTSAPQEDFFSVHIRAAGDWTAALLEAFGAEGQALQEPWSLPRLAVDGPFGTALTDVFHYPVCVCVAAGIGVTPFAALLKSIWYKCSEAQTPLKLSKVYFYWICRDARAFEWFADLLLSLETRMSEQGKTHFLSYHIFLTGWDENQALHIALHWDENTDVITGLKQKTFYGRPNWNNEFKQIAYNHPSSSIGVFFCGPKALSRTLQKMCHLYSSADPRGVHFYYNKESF

NADPH oxidase 4 = NADPH oxidase 4 (Homo sapiens, UniProt Q9NPH5); experiment: Inhibition of human NOX4
NADPH oxidase 4, sequence (Q9NPH5 whole entry): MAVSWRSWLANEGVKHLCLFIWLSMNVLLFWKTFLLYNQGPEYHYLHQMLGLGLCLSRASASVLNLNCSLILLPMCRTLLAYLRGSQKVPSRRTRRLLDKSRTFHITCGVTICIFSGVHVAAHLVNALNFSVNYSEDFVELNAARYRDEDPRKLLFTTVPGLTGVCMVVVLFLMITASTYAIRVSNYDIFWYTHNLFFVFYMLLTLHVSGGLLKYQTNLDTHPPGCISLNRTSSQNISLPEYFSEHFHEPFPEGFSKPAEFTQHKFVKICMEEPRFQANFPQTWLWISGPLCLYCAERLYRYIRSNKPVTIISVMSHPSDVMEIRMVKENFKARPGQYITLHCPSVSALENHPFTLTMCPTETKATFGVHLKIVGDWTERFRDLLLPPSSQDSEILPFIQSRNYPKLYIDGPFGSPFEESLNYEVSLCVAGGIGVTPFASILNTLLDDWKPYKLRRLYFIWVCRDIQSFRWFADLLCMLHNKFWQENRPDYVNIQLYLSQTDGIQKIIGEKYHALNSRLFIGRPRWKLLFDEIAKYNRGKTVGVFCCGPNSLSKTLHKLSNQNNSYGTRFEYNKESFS

NADPH oxidase 5 = NADPH oxidase 5 (Homo sapiens, UniProt Q96PH1); experiment: Inhibition of human NOX5
MDA-MB-231 = experiment: Antiproliferative activity against human MDA-MB-231 cells assessed as cell growth inhibition measured after 72 hrs by MTT assay; assay type: functional, cell-based; settings: MDA-MB-231, 72 h
SK-BR-3 = experiment: Antiproliferative activity against human SK-BR-3 cells assessed as cell growth inhibition measured after 72 hrs by MTT assay; assay type: functional, cell-based; settings: SK-BR-3, 72 h
MCF7 [6] = experiment: Antiproliferative activity against human MCF7 cells assessed as cell growth inhibition measured after 72 hrs by MTT assay; assay type: functional, cell-based; settings: MCF7, 72 h
MCF-10A = experiment: Antiproliferative activity against human MCF-10A cells assessed as cell growth inhibition measured after 72 hrs by MTT assay; assay type: functional, cell-based
[7] = system: Human immunodeficiency virus 1; experiment: Antiviral activity against NNRTI resistant HIV1 harboring Leu100IIe mutant infected in human MT4 cells assessed as reduction in virus-induced cytopathic effect measured after 5 days by MTT assay; assay type: functional, organism-based; settings: Human immunodeficiency virus 1, MT4, 120 h
[8] = system: Human immunodeficiency virus 1; experiment: Antiviral activity against NNRTI resistant HIV1 harboring Lys103Asn mutant infected in human MT4 cells assessed as reduction in virus-induced cytopathic effect measured after 5 days by MTT assay; assay type: functional, organism-based; settings: Human immunodeficiency virus 1, MT4, 120 h
[9] = system: Human immunodeficiency virus 1; experiment: Antiviral activity against NNRTI resistant HIV1 harboring Tyr181Cys mutant infected in human MT4 cells assessed as reduction in virus-induced cytopathic effect measured after 5 days by MTT assay; assay type: functional, organism-based; settings: Human immunodeficiency virus 1, MT4, 120 h
[10] = system: Human immunodeficiency virus 1; experiment: Antiviral activity against NNRTI resistant HIV1 harboring Tyr188Leu mutant infected in human MT4 cells assessed as reduction in virus-induced cytopathic effect measured after 5 days by MTT assay; assay type: functional, organism-based; settings: Human immunodeficiency virus 1, MT4, 120 h
[11] = system: Human immunodeficiency virus 1; experiment: Antiviral activity against NNRTI resistant HIV1 LAI infected in human MT4 cells assessed as reduction in virus-induced cytopathic effect measured after 5 days by MTT assay; assay type: functional, organism-based; settings: Human immunodeficiency virus 1, LAI, MT4, 120 h
[12] = molecular target: 5-hydroxytryptamine receptor 6 (Homo sapiens, UniProt P50406); experiment: Displacement of [3H]-LSD from human 5-HT6R expressed in HEK293 cells by radioligand binding assay; assay type: cell-based
5-hydroxytryptamine receptor 6, sequence (P50406 whole entry): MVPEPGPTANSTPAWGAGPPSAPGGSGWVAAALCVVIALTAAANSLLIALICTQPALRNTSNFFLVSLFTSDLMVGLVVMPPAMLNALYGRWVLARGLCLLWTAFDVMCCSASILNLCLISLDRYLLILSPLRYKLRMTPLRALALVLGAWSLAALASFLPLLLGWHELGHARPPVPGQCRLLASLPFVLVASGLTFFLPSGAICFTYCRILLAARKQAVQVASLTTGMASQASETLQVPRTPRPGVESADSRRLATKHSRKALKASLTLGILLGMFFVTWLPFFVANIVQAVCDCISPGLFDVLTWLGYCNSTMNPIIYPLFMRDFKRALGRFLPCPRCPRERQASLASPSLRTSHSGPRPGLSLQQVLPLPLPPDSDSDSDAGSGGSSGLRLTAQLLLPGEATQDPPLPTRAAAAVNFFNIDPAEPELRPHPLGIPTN

A-427 = experiment: Cytotoxicity against human A-427 cells assessed as cell growth inhibition measured after 96 hrs by microplate reader analysis; assay type: functional, cell-based; settings: A-427, 96 h
DAN-G = experiment: Cytotoxicity against human DAN-G cells assessed as cell growth inhibition measured after 96 hrs by microplate reader analysis; assay type: functional, cell-based
LCLC = experiment: Cytotoxicity against human LCLC cells assessed as cell growth inhibition measured after 96 hrs by microplate reader analysis; assay type: functional, cell-based
SISO = experiment: Cytotoxicity against human SISO cells assessed as cell growth inhibition measured after 96 hrs by microplate reader analysis; assay type: functional, cell-based
RT-4 = experiment: Cytotoxicity against human RT-4 cells assessed as cell growth inhibition measured after 96 hrs by microplate reader analysis; assay type: functional, cell-based; settings: RT-4, 96 h
[13] = molecular target: 1-acyl-sn-glycerol-3-phosphate acyltransferase beta (Homo sapiens, UniProt O15120); experiment: Inhibition of LPAAT-beta (unknown origin) expressed in Xenopus laevis oocytes incubated for 3 mins; assay type: cell-based, Oocyte
1-acyl-sn-glycerol-3-phosphate acyltransferase beta, sequence (O15120 whole entry): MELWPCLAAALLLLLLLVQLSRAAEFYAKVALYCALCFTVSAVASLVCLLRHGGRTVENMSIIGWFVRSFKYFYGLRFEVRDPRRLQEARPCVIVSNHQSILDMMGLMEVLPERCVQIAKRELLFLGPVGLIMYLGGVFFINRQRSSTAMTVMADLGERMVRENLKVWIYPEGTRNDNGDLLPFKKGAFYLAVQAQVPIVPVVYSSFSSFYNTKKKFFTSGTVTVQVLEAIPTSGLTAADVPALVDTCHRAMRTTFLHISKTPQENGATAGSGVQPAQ

HeLa = experiment: Cytotoxicity against human HeLa cells assessed as cell growth inhibition incubated for 96 hrs by WST-8 assay; assay type: functional, cell-based
[14] = Cytotoxicity against human HCO cell assessed as cell growth inhibition incubated for 96 hrs by WST-8 assay; assay type: functional, cell-based
HEK293 = experiment: Cytotoxicity against HEK293 cells assessed as cell growth inhibition incubated for 96 hrs by WST-8 assay; assay type: functional, cell-based; settings: Homo sapiens, HEK293, 96 h
MEF = experiment: Cytotoxicity against mouse MEF cells assessed as cell growth inhibition incubated for 96 hrs by WST-8 assay; assay type: functional, cell-based
SK-OV-3 [15] = experiment: Cytotoxicity against human SK-OV-3 cells assessed as cell growth inhibition incubated for 96 hrs by WST-8 assay; assay type: functional, cell-based; settings: SK-OV-3, 96 h
[16] = molecular target: T1, Equilibrative nucleoside transporter 1 (Homo sapiens, UniProt Q99808); experiment: Inhibition of human ENT1 transfected in nucleoside transporter-deficient pig PK-15 cells assessed as inhibition of [3H]-uridine uptake by liquid scintillation counter analysis; assay type: cell-based
T1 sequence (Q99808 whole entry): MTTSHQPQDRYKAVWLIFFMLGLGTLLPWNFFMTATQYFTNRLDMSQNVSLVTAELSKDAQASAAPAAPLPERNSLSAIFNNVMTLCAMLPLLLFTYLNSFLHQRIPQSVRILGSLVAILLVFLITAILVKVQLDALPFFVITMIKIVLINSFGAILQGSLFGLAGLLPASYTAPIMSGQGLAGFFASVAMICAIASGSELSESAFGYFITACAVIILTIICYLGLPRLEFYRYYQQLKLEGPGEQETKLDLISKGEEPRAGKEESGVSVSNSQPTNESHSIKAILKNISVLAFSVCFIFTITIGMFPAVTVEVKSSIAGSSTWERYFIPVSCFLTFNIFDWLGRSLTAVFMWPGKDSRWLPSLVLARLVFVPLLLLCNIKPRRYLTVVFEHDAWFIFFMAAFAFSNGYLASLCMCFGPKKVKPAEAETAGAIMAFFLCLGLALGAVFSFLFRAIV

[17] = molecular target: T2, Equilibrative nucleoside transporter 2 (Homo sapiens, UniProt Q14542); experiment: Inhibition of human ENT2 transfected in nucleoside transporter-deficient pig PK-15 cells assessed as inhibition of [3H]-uridine uptake by liquid scintillation counter analysis; assay type: cell-based
T2 sequence (Q14542 whole entry): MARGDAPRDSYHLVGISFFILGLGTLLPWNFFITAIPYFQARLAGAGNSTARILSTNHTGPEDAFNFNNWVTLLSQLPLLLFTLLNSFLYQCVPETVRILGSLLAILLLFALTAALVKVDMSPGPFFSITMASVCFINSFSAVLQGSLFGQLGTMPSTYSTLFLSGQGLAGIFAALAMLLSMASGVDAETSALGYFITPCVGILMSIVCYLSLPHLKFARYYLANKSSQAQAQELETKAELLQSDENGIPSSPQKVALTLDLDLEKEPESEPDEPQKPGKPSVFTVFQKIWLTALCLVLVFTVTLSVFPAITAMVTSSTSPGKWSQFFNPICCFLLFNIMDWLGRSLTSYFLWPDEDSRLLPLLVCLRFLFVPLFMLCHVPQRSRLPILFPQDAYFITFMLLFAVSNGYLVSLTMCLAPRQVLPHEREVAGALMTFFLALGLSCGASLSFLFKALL

[18] = molecular target: 5-hydroxytryptamine receptor 1A (Homo sapiens, UniProt P08908); experiment: Displacement of […] from human 5-HT1AR expressed in HEK293 cells by radioligand binding assay; assay type: cell-based
5-hydroxytryptamine receptor 1A, sequence (P08908 whole entry): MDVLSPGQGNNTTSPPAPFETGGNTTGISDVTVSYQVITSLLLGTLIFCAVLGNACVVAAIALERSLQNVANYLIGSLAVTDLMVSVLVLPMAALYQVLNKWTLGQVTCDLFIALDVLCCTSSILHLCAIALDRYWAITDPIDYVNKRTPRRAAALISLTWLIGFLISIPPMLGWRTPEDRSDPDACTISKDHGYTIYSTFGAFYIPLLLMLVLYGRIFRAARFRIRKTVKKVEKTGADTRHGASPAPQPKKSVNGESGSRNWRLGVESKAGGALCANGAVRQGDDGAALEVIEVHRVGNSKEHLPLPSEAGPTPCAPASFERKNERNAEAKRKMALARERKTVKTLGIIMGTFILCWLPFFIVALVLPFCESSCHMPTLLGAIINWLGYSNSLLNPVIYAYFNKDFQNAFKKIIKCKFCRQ

[19] = molecular target: 5-hydroxytryptamine receptor 2A (Homo sapiens, UniProt P28223); experiment: Displacement of […] from human 5-HT2AR expressed in HEK293 cells by radioligand binding assay; assay type: cell-based
5-hydroxytryptamine receptor 2A, sequence (P28223 whole entry): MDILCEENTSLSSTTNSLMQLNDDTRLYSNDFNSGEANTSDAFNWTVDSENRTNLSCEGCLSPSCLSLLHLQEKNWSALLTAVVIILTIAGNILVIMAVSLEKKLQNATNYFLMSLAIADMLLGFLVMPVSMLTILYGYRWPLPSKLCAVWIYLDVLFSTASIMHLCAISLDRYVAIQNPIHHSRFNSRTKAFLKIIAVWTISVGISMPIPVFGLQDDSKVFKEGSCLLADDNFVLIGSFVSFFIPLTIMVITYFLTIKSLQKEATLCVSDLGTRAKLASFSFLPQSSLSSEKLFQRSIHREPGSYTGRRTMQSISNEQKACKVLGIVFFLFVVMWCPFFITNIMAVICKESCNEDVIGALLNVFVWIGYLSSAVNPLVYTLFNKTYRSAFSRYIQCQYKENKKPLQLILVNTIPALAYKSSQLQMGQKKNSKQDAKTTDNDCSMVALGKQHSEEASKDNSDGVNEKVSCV

[20] = molecular target: 5-hydroxytryptamine receptor 7 (Homo sapiens, UniProt P34969); experiment: Displacement of [3H]-5Carboxyamidotryptamine from human 5-HT7R expressed in HEK293 cells by radioligand binding assay; assay type: cell-based
5-hydroxytryptamine receptor 7, sequence (P34969 whole entry): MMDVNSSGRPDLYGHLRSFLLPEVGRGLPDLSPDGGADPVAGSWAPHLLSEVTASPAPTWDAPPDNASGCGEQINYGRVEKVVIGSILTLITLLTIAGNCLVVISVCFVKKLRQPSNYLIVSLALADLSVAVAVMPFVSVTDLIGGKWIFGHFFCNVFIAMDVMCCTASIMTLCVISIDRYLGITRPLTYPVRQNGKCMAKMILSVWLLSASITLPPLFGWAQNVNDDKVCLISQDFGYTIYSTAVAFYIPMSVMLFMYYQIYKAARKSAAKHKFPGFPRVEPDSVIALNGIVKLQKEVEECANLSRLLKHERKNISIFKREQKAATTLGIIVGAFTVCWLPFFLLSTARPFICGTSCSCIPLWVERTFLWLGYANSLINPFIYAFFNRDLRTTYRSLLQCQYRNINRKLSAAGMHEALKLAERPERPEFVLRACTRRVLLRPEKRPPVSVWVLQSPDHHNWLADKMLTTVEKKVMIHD

D(2) dopamine receptor = D(2) dopamine receptor (Homo sapiens, UniProt P14416); experiment: Displacement of [3H]-Raclopride from human dopamine D2 receptor expressed in HEK293 cells by radioligand binding assay; assay type: cell-based
D(2) dopamine receptor, sequence (P14416 whole entry): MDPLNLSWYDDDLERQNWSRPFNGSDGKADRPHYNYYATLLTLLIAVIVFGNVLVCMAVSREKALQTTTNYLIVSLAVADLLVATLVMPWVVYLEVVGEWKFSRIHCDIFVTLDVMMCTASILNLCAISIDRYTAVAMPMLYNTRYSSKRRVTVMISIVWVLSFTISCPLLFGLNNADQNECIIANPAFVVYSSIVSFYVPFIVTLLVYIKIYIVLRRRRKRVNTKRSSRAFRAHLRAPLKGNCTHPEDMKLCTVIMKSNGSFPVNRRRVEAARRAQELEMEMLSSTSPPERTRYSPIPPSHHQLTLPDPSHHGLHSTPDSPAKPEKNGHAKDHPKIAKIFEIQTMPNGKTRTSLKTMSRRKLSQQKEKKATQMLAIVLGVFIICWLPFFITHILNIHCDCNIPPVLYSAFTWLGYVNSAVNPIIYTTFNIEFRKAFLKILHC

CCOc1ccc(Cl)cc1-c1nc(N)nc(Nc2ccc(Cl)cc2)n1
pIC50 [1]: 7.70 | pIC50 (Jurkat): 7.52 | pIC50 (Daudi): 8.00 | pIC50 (HL-60): 7.52 | pIC50 (MCF7 [2]): 7.30 | pIC50 (DU-145): 7.52 | pIC50 [3]: 7.70 | pIC50 (SK-OV-3 [4]): 7.49 | pIC50 [5]: 7.10 | pIC50 (AN3-CA): 7.48 | pIC50 (HEC-1-A): 7.27 | pIC50 (K562): 7.52

CCOc1ccc(Cl)cc1-c1nc(N)nc(Nc2ccc(CO)cc2)n1
pIC50 [1]: > 7.90 | pIC50 (Jurkat): > 7.90 | pIC50 (Daudi): 7.89 | pIC50 (HL-60): > 7.90 | pIC50 (MCF7 [2]): 7.40 | pIC50 (DU-145): 7.60 | pIC50 [3]: 7.60 | pIC50 (SK-OV-3 [4]): 7.54 | pIC50 [5]: 7.60 | pIC50 (AN3-CA): 7.49 | pIC50 (HEC-1-A): 7.39 | pIC50 (K562): > 7.90

Cc1ccc(N2CCN(c3nc(N)nc(Nc4ccc(C)c(C)c4)n3)CC2)cc1
pIC50 (NADPH oxidase 1): 5.15 | pIC50 (NADPH oxidase 2): 4.80 | pIC50 (NADPH oxidase 3): 5.49 | pIC50 (NADPH oxidase 4): 6.17 | pIC50 (NADPH oxidase 5): 6.24

COc1cc(-c2nc(N)nc(Nc3ccc(C)cc3)n2)cc(OC)c1OC
pIC50 (MDA-MB-231): 9.00 | pIC50 (SK-BR-3): 6.68 | pIC50 (MCF7 [6]): < 4.70 | pIC50 (MCF-10A): < 4.70

Cc1cc(C)c(Cc2nc(N)nc(Nc3ccc(C#N)cc3)n2)c(C)c1
pIC50 [7]: 7.09 | pIC50 [8]: 8.52 | pIC50 [9]: 7.82 | pIC50 [10]: 7.35 | pIC50 [11]: 9.10

CC(Oc1ccccc1Cl)c1nc(N)nc(N2CCN(C)CC2)n1 (stereo not drawn)
pKi [12]: 7.55

CCN(CC)c1ccc2cc(-c3nc(N)nc(N4CCN(c5ccccc5)CC4)n3)c(=N)oc2c1
pIC50 (A-427): 5.82 | pIC50 (DAN-G): 5.67 | pIC50 (LCLC): 5.66 | pIC50 (SISO): 5.59 | pIC50 (RT-4): 5.78

CCc1ccc(Nc2nc(N)nc(-c3oc4ccccc4c3C)n2)cc1
pIC50 [13]: 7.82 | pIC50 (HeLa): 6.95 | pIC50 [14]: 7.20 | pIC50 (HEK293): 7.60 | pIC50 (MEF): 7.32 | pIC50 (SK-OV-3 [15]): 7.10

Cc1cccc(Nc2nc(N)nc(CN3CCN(c4ccc(F)cc4)CC3)n2)c1
pIC50 [16]: 5.62 | pIC50 [17]: 6.24

COc1ccc(Nc2nc(N)nc(CN3CCN(c4ccccc4F)CC3)n2)cc1
pIC50 [16]: 6.23 | pIC50 [17]: 4.11

CN1CCN(c2nc(N)nc(C(C)(C)Sc3ccc4ccccc4c3)n2)CC1
pKi [18]: 5.64 | pKi [19]: 7.41 | pKi [20]: 6.21 | pKi (D(2) dopamine receptor): 6.52
